PubChem BioAssay (NCI)
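Compound exposure: 48 hours, 5 concentrations, 96-well plates. Here, GI50 denotes the concentration required for 50% inhibition of growth. At the TGI there is no net growth.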

Legend:
Assay in all cases: NCI anticancer screen, dose series, 48 h
M19-MEL melanoma = test system: M19-MEL melanoma
XF 498 CNS = test system: XF 498 CNS
HOP-18 NSCLC = test system: HOP-18 NSCLC
KM20L2 colon = test system: KM20L2 colon
LXFL 529 NSCLC = test system: LXFL 529 NSCLC
DMS 114 small cell lung = test system: DMS 114 small cell lung
RXF-631 renal = test system: RXF-631 renal
MDA-N = test system: MDA-N

Compound	TGI (M19-MEL melanoma)	TGI (XF 498 CNS)	TGI (HOP-18 NSCLC)	TGI (KM20L2 colon)	TGI (LXFL 529 NSCLC)	TGI (DMS 114 small cell lung)	TGI (RXF-631 renal)	TGI (MDA-N)	GI50 (MDA-N)	GI50 (KM20L2 colon)
CCOC(=O)C1(C(=O)OCC)CC=C(C)CC12C(=O)Nc1ccccc12 (centres undefined)	> 100 µM	> 100 µM	> 100 µM	> 100 µM	> 100 µM	> 100 µM	–	–	–	–
Cn1cnc([N+](=O)[O-])c1Sc1nnc(C(F)(F)F)n1C	37.2 µM	–	76.2 µM	–	27.8 µM	> 100 µM	39.6 µM	–	–	–
COP1(=S)OCC2CCC[C@@H]2O1 (some centres undefined)	–	–	–	–	–	–	–	> 100 µM	–	–
CC(C)CC(=O)CC(O)C(Cl)(Cl)Cl (centres undefined)	–	–	–	–	–	–	–	> 100 µM	–	–
C=C1C(=O)O[C@H]2[C@H]1CC(=O)/C(C)=C\CC[C@@]1(C)O[C@@H]21	–	–	–	–	–	–	–	7.87 µg/mL	3.58 µg/mL	–
COC(=O)C(=O)C(C#N)c1ccc(Cl)c(Cl)c1 (centres undefined)	> 100 µM	> 100 µM	–	> 100 µM	> 100 µM	–	> 100 µM	–	–	–
O=C1CCC2CCOc3ccc(O)c1c32 (centres undefined)	> 100 µM	–	–	> 100 µM	–	> 100 µM	> 100 µM	–	–	–
CC(C)(C)C(=O)OCC(COC(=O)C(C)(C)C)[N+](=O)[O-]	> 100 µM	> 100 µM	–	–	> 100 µM	> 100 µM	–	–	–	–
Oc1ccc(SCc2ccc(NCc3ccccc3)cc2)cc1	–	–	–	–	–	–	–	57.4 µM	–	–
O=C1c2ccccc2C2(O)Oc3cccc(O)c3C12O (centres undefined)	> 100 µM	–	> 100 µM	> 100 µM	> 100 µM	> 100 µM	> 100 µM	–	–	–
CCCCCCCCCC(=O)N[C@H]1CCc2cc(OC)c(OC)c(OC)c2-c2ccc(SC)c(=O)cc21	67.4 µM	0.0693 µM	–	0.0387 µM	96.7 µM	0.0403 µM	–	–	–	–
O=[N+]([O-])c1ccc2c(c1)S(=O)c1ccccc1-2 (centres undefined)	–	–	–	–	–	–	–	> 100 µM	–	–
O=C1CC(c2c[nH]c3ccccc23)C(=O)N1c1ccccc1 (centres undefined)	> 100 µM	> 100 µM	–	> 100 µM	> 100 µM	–	–	–	–	–
CS(=O)(=O)CS(=O)CS(=O)CS(=O)CC(NC(=O)CCC(N)C(=O)O)C(=O)O (centres undefined)	–	–	–	–	–	–	–	> 100 µM	–	–
COc1ccc(CCC2NCCc3cc(OC)c(OC)cc32)cc1 (centres undefined)	–	> 100 µM	> 100 µM	> 100 µM	> 100 µM	–	–	–	–	–
COc1ccc(Nc2c[nH]c(=O)[nH]c2=O)cc1	–	–	–	–	–	–	–	> 100 µM	–	–
CCc1cccc(C(C)CC)c1NC(=O)CC1C(=O)Nc2ccccc2S1=O (centres undefined)	> 100 µM	–	–	> 100 µM	> 100 µM	> 100 µM	> 100 µM	–	–	–
O=C(CC(=O)c1ccccc1NC1=Cc2ccccc2C(=O)C1=O)C(=O)NC1=C(Cl)C(=O)c2ccccc2C1=O	0.931 µM	4.66 µM	–	30.5 µM	8.6 µM	4 µM	31.9 µM	3.15 µM	–	–
CC(C)(CCC(C)(C)c1ccccc1)c1ccccc1	–	–	–	–	–	–	–	56.8 µM	–	–
CC(C)c1ccc(O)c(=O)cc1	> 70.9 µM	> 100 µM	> 56.1 µM	> 100 µM	> 100 µM	11.5 µM	–	–	22.7 µM	–
Cc1ccc(N(C(=O)CC(=O)N2N=C(c3ccccc3)C(N=Nc3ccc([N+](=O)[O-])cc3)C2=O)C(=O)c2ccc(Cl)cc2)cc1 (centres undefined)	> 53.9 µM	52.2 µM	> 85.6 µM	> 100 µM	> 52.9 µM	> 51.1 µM	–	–	–	–

Compound	TGI (M19-MEL melanoma)	TGI (XF 498 CNS)	TGI (HOP-18 NSCLC)	TGI (KM20L2 colon)	TGI (LXFL 529 NSCLC)	TGI (DMS 114 small cell lung)	TGI (RXF-631 renal)	TGI (MDA-N)	GI50 (MDA-N)	GI50 (KM20L2 colon)
O=C1C=C(Nc2nc(C(=O)O)cc(=O)[nH]2)c2ccccc2C1=O	–	–	–	–	–	–	–	> 100 µM	–	–
COc1cccc2c1C(=O)c1c(O)c3c(c(O)c1C2=O)C[C@@](O)(/C(C)=N\O)C[C@@H]3OC1CC(N)C(O)C(C)O1 (some centres undefined)	3.79 µM	0.951 µM	7.26 µM	30.9 µM	7.11 µM	2.58 µM	45.5 µM	5.83 µM	–	–
CC1=N/C(=C\c2cccc3ccccc23)C(=O)O1	> 100 µM	–	> 100 µM	> 100 µM	> 100 µM	> 100 µM	> 100 µM	–	–	–
O=C1CCC(=O)C12CCc1cccc(O)c12	> 100 µM	> 100 µM	> 100 µM	> 100 µM	> 100 µM	> 100 µM	–	–	–	–
C=CCC(C)(C(=O)NCCC)C(=O)c1ccccc1O (centres undefined)	> 100 µM	–	> 100 µM	> 100 µM	> 100 µM	> 100 µM	–	–	–	–
O=C(/C=C/c1ccc(Cl)cc1)c1ccncc1	68.7 µM	–	> 100 µM	> 100 µM	> 100 µM	> 100 µM	> 100 µM	–	–	–
Cc1ccc([Se][Se]c2ccc(C)cc2)cc1	40.6 µM	40.8 µM	33.5 µM	> 100 µM	31.7 µM	57 µM	77.9 µM	–	–	–
CN(Cc1ccccc1)C1(N(C)Cc2ccccc2)CC1	> 100 µM	> 100 µM	> 100 µM	> 100 µM	> 100 µM	> 100 µM	–	–	–	–
CCc1nc(N)nc(N)c1-c1ccc(Cl)c(N=NN(C)C)c1	–	–	–	–	–	–	–	> 100 µM	–	–
O=C1NC(=S)NC(=O)C1=Cc1ccc2ccccc2n1	> 100 µM	–	> 100 µM	> 100 µM	> 100 µM	> 100 µM	–	–	–	–
CN(C)CCNC(=O)c1cccc2c1nc(-c1ccccn1)c1ccccc12	32 µM	–	96.8 µM	–	–	36.3 µM	–	–	–	–
COc1ccc(/C=C/C(C(=O)O)C(=O)O)cc1	> 100 µM	> 100 µM	–	> 100 µM	> 100 µM	> 100 µM	–	–	–	–
Cc1nn(C)c(=S)n(C)c1=O	> 100 µM	5.31 µM	4.89 µM	> 100 µM	54.6 µM	0.842 µM	–	–	–	–
N#Cc1ccc2oc3ccc(C#N)cc3c(=O)c2c1	–	–	–	–	–	–	–	31.9 µM	–	–
N#CC(=S)Nc1ccc(F)cc1	–	–	–	–	–	–	–	> 100 µM	–	–
CC1=C(c2cc(C(=O)Nc3cccc(C(F)(F)F)c3)nc(NC#N)n2)Sc2ccccc2N1	> 100 µM	–	> 100 µM	> 100 µM	> 100 µM	> 100 µM	> 100 µM	–	–	–
COc1ccc(S(=O)(=O)N/N=C(\C)CN2C(=O)c3ccccc3C2=O)cc1	> 100 µM	–	> 100 µM	> 100 µM	> 100 µM	> 100 µM	> 100 µM	–	–	–
C1C[OH+]CC[OH+]CC[OH+]CC[OH+]CC[OH+]CC[OH+]1.[Cl-].[Ta+5]	–	–	–	> 100 µM	–	–	–	–	–	> 100 µM
Cc1nn(C)c(=O)c2nn(-c3ccccc3)c(C)c12	> 100 µM	–	> 100 µM	> 100 µM	> 100 µM	> 100 µM	–	–	–	–
Cc1cccc(N2C(=O)C(=O)C(c3nc4ccccc4s3)C(=O)C2=O)c1C	> 100 µM	–	> 100 µM	> 100 µM	> 100 µM	> 100 µM	> 100 µM	–	–	–
